Data taken from US6949571B2, “1,2-dihydropyridine compounds, process for preparation of the same and use thereof” (Eisai Co., Ltd., priority 2000, dated 2005).

Assays:
[1] = tested on: experimental autoimmune encephalomyelitis; assay: Experimental autoimmune encephalomyelitis model; format: in vivo; settings: p.o. 5, 10 and 20 mg/kg, 10-16 days post immunisation, female Lewis rats, versus vehicle
Protocol: Female Lewis rats (205±10 g) obtained from Charles River, Kent UK, were housed in pairs under environmentally controlled conditions (6:00 a.m.-6:00 p.m. light/dark cycle; 22-24° C.; 45-55% humidity) and allowed free access to food and water. Experimental groups consisted of 9-12 animals. Rats were immunised in each hind foot with 20-50 μl of inoculum containing 50 μg guinea pig myelin basic protein (MBP; final concentration 2 mg/ml), emulsified in Freund's complete adjuvant (CFA; Sigma, UK) containing Mycobacterium tuberculosis H37Ra (final concentration 5.5 mg/ml; Difco Laboratories, UK). Animals were weighed and monitored daily and clinical disease scored as (O) no clinical signs; (1) flaccid tail and weight loss; (2) hind limb hypotonia with further weight loss; (3) complete hind limb paralysis; (4) paraplegia and (5) death. […] During the period of compound administration (10-16 days post immunisation; dpi) animals were scored 15 h after injection of vehicle or compound to avoid any acute effect of treatment on disease score. Compounds were dissolved/suspended in 0.5% methyl cellulose using a hand held Polytron homogeniser (PT1200; 2 min). Rats were dosed p.o. with either methyl cellulose vehicle (2.5 ml/kg) or compound at 5, 10 and 20 mg/kg. Results: the compound of the invention is improved in view of experimental autoimmune encephalomyelitis.

[2] = tested on: AMPA receptor; settings: Table 2; suppression of AMPA-induced calcium influx into nerve cells;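 note: primary rat embryonic cortical neurons grown on an astrocyte layer in 96-well plates, used after at least 8 to 10 days in culture, Fura2-AM fluorescence ratio at 340/380 nm excitation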
[3] = tested on: convulsions induced by AMPA; assay: Anticonvulsant action induced by AMPA; format: in vivo, mice of ddy strain; settings: 25 mg/kg orally, male ddy mice; AMPA continuously injected into lateral ventricle 30 minutes or 1 hour after
Protocol: A test compound was suspended in a 0.5% methyl cellulose solution or in sesame oil and was orally administered (25 mg/kg) to male mice of ddy strain. After 30 minutes or 1 hour from the oral administration, AMPA was continuously injected ([…]/5 μl/minute/mouse) into lateral ventricle to induce the convulsions. The effect was judged by a time-extending action until the convulsion takes place by a continuous injection of AMPA.

O=c1c(-c2cccnc2F)cc(-c2ncccn2)cn1-c1ccccc1 [Example 262, 3-(2-Fuluoropyridin-3-yl)-1-phenyl-5-(2-pyrimidinyl)-1,2-dihydropyridin-2-one]
effect on experimental autoimmune encephalomyelitis (clinical disease score) [1]: superior effect to the vehicle-administered group | IC50 [2]: 300 nM | anticonvulsant action (time-extending action until the convulsion takes place) [3]: significant anticonvulsant action

O=c1c(-c2cccnc2F)cc(-c2ccccn2)cn1-c1cccnc1 [Example 139, 3-(2-Fluoro-3-pyridyl)-5-(2-pyridyl)-1-(3-pyridyl)-1,2-dihydropyridin-2-one]
effect on experimental autoimmune encephalomyelitis (clinical disease score) [1]: superior effect to the vehicle-administered group | IC50 [2]: 300 nM | anticonvulsant action (time-extending action until the convulsion takes place) [3]: significant anticonvulsant action
